Test results published in patent US5162354A, “3-halo-5-halomethyl-2-oxazolidinones and their use as microbicides” (Buckman Laboratories International, Inc., priority 1991, dated 1992).
≈ marks a conversion by molar mass, not a printed value. Like-named read-outs stand apart in the source and are kept apart here.

Tests used:
Assay type in all cases: cell-based
Escherichia coli = assay: AOAC Germicidal and Detergent Sanitizing Action of Disinfectants (Escherichia coli)
Description: (§1) This test is conducted according to AOAC methods described in AOAC Official Methods of Analysis (1984) p 70. This test is suitable for chemicals that can be permitted for use in sanitizing precleaned non-porous food contact surfaces. This test also determines the effectiveness of compounds tested in hard water. Most of the detergents/sanitizers available in the market become ineffective in the presence of hard water, i.e. water containing calcium and/or magnesium ions. A water hardness value of 400 ppm was chosen because it is considered to be the highest hardness value for tap water in the United States.

Streptococcus faecalis [1] = assay: AOAC Germicidal and Detergent Sanitizing Action of Disinfectants (Streptococcus faecalis)
Description: as §1

Phormidium inundatum = assay: Growth inhibiting activity against algae in Difco Algae Broth (Phormidium inundatum); details: 672 h, pH 7, read-out: Minimum inhibitory concentration against algae
Description: The growth inhibiting activity of the method of the invention against the three algae Chlorella pyrenoidosa, Chlorococcum hypnosporum and Phormidium inundatum was evaluated in Difco Algae Broth, the content of which was as follows:
Forty-gram portions of the algae medium were added to 250 mL Pyrex Erlenmeyer flasks fitted with loose metal caps and then sterilized. Each of the following substances was then added to the flasks in the order listed:
1. Sterile algae medium as required to bring the total weight of the contents of each flask to 50 grams, after allowing for all subsequent additions specified below.
2. A solution of one of compounds 1-4 or of a control agent to be evaluated in each test, to give the concentration desired in parts per million by weight.
3. Chlorella pyrenoidosa, Chlorococcum hypnosporum and Phormidium inundatum in amounts sufficient to give excellent growth in the controls after 14 days. This was achieved by adding 1 milliliter of a 14 day old culture having luxuriant growth. The Chlorella pyrenoidosa culture was obtained from American Type Culture Collection No. 7516; Chlorococcum hypnosporum, from the University of TX at Austin; and Phormidium inundatum, WI No. 1093, from the University of WA.
As a control experiment, WSCP was used as a positive control agent. WSCP is a known toxicant which kills C. pyrenoidosa at 2 ppm, C. hypnosporum at 2ppm, and P. inundatum at 10 ppm. Control experiments were also carried out where no toxicants were employed. In the algicidal tests, the growth of algae in the nutrient medium is lush green and can be seen with the naked eye. Because the minimum inhibitory concentrations of the compounds in this example are those which result in complete inhibition, evaluation of the test results is not subjective.
After the inoculum of the test algae was added, the flasks were incubated at a temperature of 28°±2° C. under fluorescent illumination of 250 foot-candle intensity (8 hours light, 16 hours darkness) for a period adequate for growth in the controls (those portions of medium which contained no toxicant). Observations of growth were made at 7-day intervals. Minimum inhibitory concentrations are those that prevented complete growth after 28 days.

Enterobacter aerogenes = assay: Basal salts method, minimum inhibitory concentration against Enterobacter aerogenes; details: Klebsiella aerogenes, at least 80% kill
Description: Compounds 1-4 of Examples 3-6 of the present invention were tested by the basal salts method described in U.S. Pat. No. 2,881,070 at column 5, beginning at line 12 and extending to column 6, line 53. […] The minimum inhibitory concentrations are those in which a percentage kill of at least 80% is obtained.

Streptococcus faecalis [2] = assay: AOAC Disinfectant Swimming Pool Assay (Streptococcus faecalis); details: Enterococcus faecalis, 10 min, contact time 10 minutes, read-out: MIC (Minimum inhibitory concentration required to inhibit microorganisms)
Description: (§2) This example was based on the procedure described in AOAC (Association of Official Analytical Chemists) Official Methods of Analysis (1986) pp 75-77. The results obtained by this method are suitable for presumptive evidence of acceptability of products for disinfecting swimming pool water. The results obtained for Compound 1 in a contact time of 10 minutes are noted in Table IV.

Staphylococcus aureus = assay: Efficacy of Sanitizers Recommended for Non-Food Contact Surfaces, ASTM E 1153-87 (Staphylococcus aureus); details: 99.9% kill, read-out: Minimum inhibitory concentration required to inhibit microorganisms
Description: This test method is used to evaluate the antimicrobial efficacy of sanitizers on precleaned non-porous, non-food contact surfaces. This test was performed according to the test procedure E 1153-87 of ASTM. […] For most of the sanitizers, effectiveness is hampered (or minimum inhibitory concentrations go up) in the presence of an organic load. Therefore, the compounds of the present invention are tested both in the presence and absence of 5% organic load (Bovine albumin fraction V, Sigma Chemical Company).

Salmonella choleraesuis = assay: AOAC Disinfectant Swimming Pool Assay (Salmonella choleraesuis); details: Salmonella enterica, 10 min, contact time 10 minutes, read-out: MIC (Minimum inhibitory concentration required to inhibit microorganisms)
Description: as §2

[3] = Hard Water (400 ppm calcium carbonate)

O=C1OC(CCl)CN1Br (centres unmarked) [Compound 1, 3-Bromo-5-chloromethyl-2-oxazolidinone]
Minimum inhibitory concentration required to inhibit microorganisms (Escherichia coli; [3]): 80 parts per million (w/v)
MIC (Escherichia coli; Soft Water, read-out: Minimum inhibitory concentration required to inhibit microorganisms): 80 µg/mL (≈ 373 µM)
MIC (Streptococcus faecalis [1]; Enterococcus faecalis, Soft Water, read-out: Minimum inhibitory concentration required to inhibit microorganisms): 80 µg/mL (≈ 373 µM)
Minimum inhibitory concentration required to inhibit microorganisms (Streptococcus faecalis [1]; [3]): 80 parts per million (w/v)
MIC (Phormidium inundatum): 2 µg/mL (≈ 9.33 µM)
MIC (Enterobacter aerogenes; pH 6.0): 10 µg/mL
MIC (Enterobacter aerogenes; pH 8.0): 10 µg/mL
MIC (Streptococcus faecalis [2]): 80 µg/mL (≈ 373 µM)
MIC (Staphylococcus aureus; With 5% organic load (bovine albumin)): 160 µg/mL (≈ 746 µM)
MIC (Staphylococcus aureus; Without organic load): 80 µg/mL (≈ 373 µM)
MIC (Salmonella choleraesuis): 80 µg/mL (≈ 373 µM)
